ChEMBL document CHEMBL2169738, “Rational design of a low molecular weight, stable, potent, and long-lasting GPR103 aza-β3-pseudopeptide agonist” (J Med Chem, 2012)
pEC50, pIC50: −log10 of the molar value. The source made the active and inactive calls. No cut-off for these calls is given here. Numbered stars: 1 amine (or outer) side, 2 acyl side, 3 side chain; on linkers, the order of the positions; unused ones are H or OH. Square brackets hold non-standard residues; d marks the D form. Peptide text beside a SMILES is read from it. * marks the point of attachment. Acetyl(2-(piperazin-1-yl)) = O=C(CN1CCNCC1)*; azaβ3hArg = N=C(N)NCCCN(CC(=O)[*:2])N[*:1]; Hydrazinoacetyl = O=C(CNN[*:1])[*:2]; X5 = O=C(CN(Cc1ccccc1)N[*:1])[*:2]; X9 = O=C(CN(CC1CCCCC1)N[*:1])[*:2]; X1 = O=C(CN(CC(O)CO)N[*:1])[*:2]; X3 = CCCCN(CC(=O)[*:2])N[*:1]; X4 = CCCN(CC(=O)[*:2])N[*:1]; X6 = O=C(CN(CCO)N[*:1])[*:2]; X2 = NC(=O)CN(Cc1ccccc1)N*; X8 = CN(CC(=O)[*:2])N[*:1]; X7 = O=C(CN1CCCN1)*

Experiments:
[1] = target: T1, Pyroglutamylated RF-amide peptide receptor (Homo sapiens, UniProt Q96P65); test: Agonist activity at human GPR103 expressed in CHO cells co-expressing Galpha16 assessed as increase in intracellular calcium level measured for 2 mins by fluorimetry; format: functional, cell-based
T1 sequence (Q96P65 whole entry): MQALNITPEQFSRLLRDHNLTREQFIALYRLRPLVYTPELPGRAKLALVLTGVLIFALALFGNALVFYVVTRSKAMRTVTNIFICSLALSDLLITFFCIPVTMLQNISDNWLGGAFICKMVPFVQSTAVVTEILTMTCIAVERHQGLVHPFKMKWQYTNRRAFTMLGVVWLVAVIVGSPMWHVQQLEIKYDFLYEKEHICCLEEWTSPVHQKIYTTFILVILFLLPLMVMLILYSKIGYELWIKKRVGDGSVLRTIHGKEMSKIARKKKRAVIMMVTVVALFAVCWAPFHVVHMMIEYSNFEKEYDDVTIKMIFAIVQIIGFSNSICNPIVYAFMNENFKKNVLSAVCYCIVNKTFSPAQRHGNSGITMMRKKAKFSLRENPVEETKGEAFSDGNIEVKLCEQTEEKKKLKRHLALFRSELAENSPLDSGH

[2] = target: T1, Pyroglutamylated RF-amide peptide receptor; test: Antagonist activity at human GPR103 expressed in CHO cells co-expressing Galpha16 assessed as inhibition of human 26RFa-induced increase in intracellular calcium level by fluorimetry; format: functional, cell-based
Mus musculus [3] = test: Orexigenic effect in Swiss albino CD1 mouse at 0.012 to 1.2 nmol, icv measured for 30 mins; format: functional, organism-based
[4] = Half life in human serum by RP-HPLC; format: ADME, cell-free
Mus musculus [5] = test: Orexigenic effect in Swiss albino CD1 mouse at 1.2 nmol, icv measured after every 30 mins for 60 to 90 mins; format: functional, organism-based
Mus musculus [6] = test: Orexigenic effect in icv dosed Swiss albino CD1 mouse assessed as cumulative food intake measured after 2 hrs; format: functional
Mus musculus [7] = test: Orexigenic effect in Swiss albino CD1 mouse at 0.012 to 1.2 nmol, icv after 30 mins; format: functional, organism-based
[8] = target: T1, Pyroglutamylated RF-amide peptide receptor; test: Displacement of [125I]26RFa from human GPR103 expressed in HEK293 cells incubated for 1 h by gamma counter based method; format: cell-based
Mus musculus [9] = test: Orexigenic effect in Swiss albino CD1 mouse at 1.2 nmol, icv measured after every 30 mins for 90 to 120 mins; format: functional, organism-based
Serum [10] = test: Compound degradation in human serum assessed as breakdown of N-terminal region incubated for 15 mins by RP-HPLC; format: ADME, cell-free; conditions: 0.25 h
Serum [11] = test: Ratio of t1/2 of compound to t1/2 of 26RFa in human serum by RP-HPLC; format: ADME, cell-free
Serum [12] = test: Compound degradation in human serum assessed as breakdown of N-terminal region incubated for 2 mins by RP-HPLC; format: ADME, cell-free
Mus musculus [13] = test: Orexigenic effect in icv dosed Swiss albino CD1 mouse measured after every 30 mins; format: functional, organism-based

## NCC(=O)NCC(=O)N[C@@H](Cc1ccccc1)C(=O)N[C@@H](CO)C(=O)N[C@@H](Cc1ccccc1)C(=O)N[C@@H](CCCN=C(N)N)C(=O)NN(CC(N)=O)Cc1ccccc1 (H-GGFSFR-X2)
[1]
  pEC50: < 5.00
[2]
  pIC50: < 5.00

## N=C(N)NCCC[C@H](NC(=O)[C@H](Cc1ccccc1)NC(=O)[C@H](CO)NC(=O)[C@H](Cc1ccccc1)NC(=O)CNC(=O)CN)C(=O)N[C@@H](Cc1ccccc1)C(N)=O (H-GGFSFRF-NH2)
Mus musculus [3]
  Activity: Active
[4]
  half-life: 11.2 min
Mus musculus [5]
  Activity: Active
Mus musculus [6]
  Activity: 1833 mg
Mus musculus [7]
  Activity: inactive
[8]
  pIC50: 5.06

## NCC(=O)NCC(=O)N[C@@H](Cc1ccccc1)C(=O)N[C@@H](CO)C(=O)N[C@@H](Cc1ccccc1)C(=O)NN(CCCN=C(N)N)CC(=O)N[C@@H](Cc1ccccc1)C(N)=O (H-GGFSF[azaβ3hArg]F-NH2)
[1]
  pEC50: < 5.00
[2]
  pIC50: < 5.00

## NCC(=O)NCC(=O)N[C@@H](Cc1ccccc1)C(=O)N[C@@H](CO)C(=O)NN(CC(=O)N[C@@H](CCCN=C(N)N)C(=O)N[C@@H](Cc1ccccc1)C(N)=O)Cc1ccccc1 (H-GGFS[X5]RF-NH2)
[1]
  pEC50: < 5.00
[2]
  pIC50: < 5.00

## NCC(=O)NCC(=O)N[C@@H](Cc1ccccc1)C(=O)NN(CC(=O)N[C@@H](Cc1ccccc1)C(=O)N[C@@H](CCCN=C(N)N)C(=O)N[C@@H](Cc1ccccc1)C(N)=O)CC(O)CO (some centres not stated) (H-GGF[X1]FRF-NH2)
[1]
  pEC50: 6.47

## CCCCN(CC(=O)N[C@@H](Cc1ccccc1)C(=O)N[C@@H](CCCNC(=N)N)C(=O)N[C@@H](Cc1ccccc1)C(N)=O)NC(=O)[C@H](Cc1ccccc1)NC(=O)CNC(=O)CN (H-GGF[X3]FRF-NH2)
[1]
  pEC50: 4.53

## CCCN(CC(=O)N[C@@H](Cc1ccccc1)C(=O)N[C@@H](CCCN=C(N)N)C(=O)N[C@@H](Cc1ccccc1)C(N)=O)NC(=O)[C@H](Cc1ccccc1)NC(=O)CNC(=O)CN (H-GGF[X4]FRF-NH2)
[1]
  pEC50: < 5.00
[2]
  pIC50: < 5.00

## N=C(N)NCCC[C@H](NC(=O)[C@H](Cc1ccccc1)NC(=O)CN(CCO)NC(=O)[C@H](Cc1ccccc1)NC(=O)CNC(=O)CN)C(=O)N[C@@H](Cc1ccccc1)C(N)=O (H-GGF[X6]FRF-NH2)
[1]
  pEC50: 5.96

## CN(CC(=O)N[C@@H](Cc1ccccc1)C(=O)N[C@@H](CCCN=C(N)N)C(=O)N[C@@H](Cc1ccccc1)C(N)=O)NC(=O)[C@H](Cc1ccccc1)NC(=O)CNC(=O)CN (H-GGF[X8]FRF-NH2)
[1]
  pEC50: 5.96

## NCC(=O)NCC(=O)N[C@@H](Cc1ccccc1)C(=O)NN(CC(=O)N[C@@H](Cc1ccccc1)C(=O)N[C@@H](CCCN=C(N)N)C(=O)N[C@@H](Cc1ccccc1)C(N)=O)CC1CCCCC1 (H-GGF[X9]FRF-NH2)
[1]
  pEC50: 5.86

## NCC(=O)NCC(=O)NN(CC(=O)N[C@@H](CO)C(=O)N[C@@H](Cc1ccccc1)C(=O)N[C@@H](CCCN=C(N)N)C(=O)N[C@@H](Cc1ccccc1)C(N)=O)Cc1ccccc1 (H-GG[X5]SFRF-NH2)
[1]
  pEC50: 5.63

## N=C(N)NCCC[C@H](NC(=O)[C@H](Cc1ccccc1)NC(=O)[C@H](CO)NC(=O)[C@H](Cc1ccccc1)NC(=O)CNNC(=O)CN)C(=O)N[C@@H](Cc1ccccc1)C(N)=O (H-G[Hydrazinoacetyl]FSFRF-NH2)
[1]
  pEC50: 6.87
[8]
  pIC50: 5.52

## CC(C)C[C@H](NC(=O)[C@H](CC(N)=O)NC(=O)CNC(=O)[C@H](CC(C)C)NC(=O)[C@@H]1CCCN1C(=O)CNC(=O)[C@H](CO)NC(=O)[C@@H](N)[C@@H](C)O)C(=O)N[C@@H](C)C(=O)N[C@@H](CCC(=O)O)C(=O)N[C@@H](CCC(=O)O)C(=O)N[C@@H](CC(C)C)C(=O)N[C@@H](CC(N)=O)C(=O)NCC(=O)N[C@@H](Cc1ccc(O)cc1)C(=O)N[C@@H](CO)C(=O)N[C@@H](CCCNC(=N)N)C(=O)N[C@@H](CCCCN)C(=O)N[C@@H](CCCCN)C(=O)NCC(=O)NCC(=O)N[C@@H](Cc1ccccc1)C(=O)N[C@@H](CO)C(=O)N[C@@H](Cc1ccccc1)C(=O)N[C@@H](CCCNC(=N)N)C(=O)N[C@@H](Cc1ccccc1)C(N)=O (H-TSGPLGNLAEELNGYSRKKGGFSFRF-NH2)
[4]
  half-life: 6.9 min
[8]
  pIC50: 8.90

## N=C(N)NCCC[C@H](NC(=O)[C@H](Cc1ccccc1)NC(=O)[C@H](CO)NC(=O)[C@H](Cc1ccccc1)NC(=O)CNC(=O)CNN)C(=O)N[C@@H](Cc1ccccc1)C(N)=O (Hydrazinoacetyl-GFSFRF-NH2)
[1]
  pEC50: 6.37

## N=C(N)NCCC[C@H](NC(=O)[C@H](Cc1ccccc1)NC(=O)CN(CC(O)CO)NC(=O)[C@H](Cc1ccccc1)NC(=O)CN1CCCN1)C(=O)N[C@@H](Cc1ccccc1)C(N)=O (some centres not stated) (X7-F[X1]FRF-NH2)
[1]
  pEC50: 6.42

## NC(=O)[C@H](Cc1ccccc1)NC(=O)[C@H](CCCN=C(N)N)NC(=O)[C@H](Cc1ccccc1)NC(=O)[C@H](CO)NC(=O)[C@H](Cc1ccccc1)NC(=O)CN1CCNCC1 ({Acetyl(2-(piperazin-1-yl))}-FSFRF-NH2)
[1]
  pEC50: 6.86

## N=C(N)NCCC[C@H](NC(=O)[C@H](Cc1ccccc1)NC(=O)CN(CC(O)CO)NC(=O)[C@H](Cc1ccccc1)NC(=O)CN1CCNCC1)C(=O)N[C@@H](Cc1ccccc1)C(N)=O (some centres not stated) ({Acetyl(2-(piperazin-1-yl))}-F[X1]FRF-NH2)
Mus musculus [9]
  Activity: Active
Serum [10]
  Stability: Stable
[4]
  half-life: 35.6 min
Serum [11]
  Ratio: 5
Serum [12]
  Stability: Stable
Mus musculus [6]
  Activity: 1873 mg
[1]
  pEC50: 7.03
Mus musculus [13]
  Activity: Dose-dependent effect
[8]
  pIC50: 5.70

## CCCN(CC(=O)N[C@@H](Cc1ccccc1)C(=O)N[C@@H](CCCNC(=N)N)C(=O)N[C@@H](Cc1ccccc1)C(N)=O)NC(=O)[C@H](Cc1ccccc1)NC(=O)CN1CCNCC1 ({Acetyl(2-(piperazin-1-yl))}-F[X4]FRF-NH2)
[1]
  pEC50: 6.79
